Like-named read-outs stand apart in the source and are kept apart here.
Legend:
LDL [1] = test: Logistic regression models of attaining LDL goal: odds ratios for concurrent or prior drug doses; format: in vivo, patients
Method: G. Covariates for the multivariate model—The following list includes the predictors one or more of which may be tested in the multivariate models. • 1. AGE: (expressed in units of 10 years) at time that the new statin prescription was released • 2. GENDER, E. G., MALE: 1=yes, 0=no • 3. BMI (kg/M^2): last value before release date • 4. HBA1C (hemoglobin Alc): last value before release date • 5. PLDL: preceding LDL level expressed in e.g. 10 mg/dl units • 6. Statins • a. PLOVA: prior daily dose of lovastatin expressed in e.g. 10 mg units • b. […] For additional drugs: • a. AMIODOSE: amiodarone dose in mg/day • b. CARBDOSE: carbemazepine dose in mg/day • c. PIOGDOSE: pioglitazone dose expressed as number of 15 mg doses per day • d. […] METFDOSE: metformin dose expressed as number of 1000 mg doses per day • f. PHENDOSE: phenyloin dose in mg/day • g. RISPDOSE: risperidone dose in mg/day • h. ROSIDOSE: rosiglitazone dose in mg/day • i.
Body mass index (BMI) was chosen as a covariate of statin response because obese patients tend to consume a diet high in cholesterol. It was hypothesized that they would respond less well to statins because their hypercholesterolemia was more likely to be mediated by dietary indiscretion than excessive LDL synthesis. […] Metformin and the thiazolidinediones were chosen because they reduce LDL levels in diabetic patients through mechanisms that may or may not be affected by concurrent statin treatment. The remaining non-statin drugs were chosen because they are commonly used drugs that potentiate the effect of statins. They were selected by reviewing the official on-line VA pharmaceutical reference (Micromedex®) for major interactions mediated by impaired statin metabolism. […] The daily dose of the non-statin drug was calculated by the method described in Section B.
H. Assembling the predictor file—The patient identifier was used to link the new statin prescription type and dose, the preceding LDL above goal, and the type and dose of the previous statin (if any) with the patient's most recent HbA1c, most recent BMI, and the daily doses of 9 drugs with major statin interactions that were active at the time the new prescription was released.
The dependent variable was attainment of goal (LDL <100 mg/dl). […] Step selections were based upon the maximal likelihood method with α<0.15 to enter and ≧0.15 to remove.

LDL [2] = conditions: second study named in the background; any dose adjustment or change; cited from earlier work
LDL [3] = conditions: cited from earlier work
LDL [4] = test: Proportion of CAD patients attaining LDL goal (<100 mg/dl) on a statin dose; validation sets stratified by predicted probability; conditions: for Proportion of patients achieving goal: validation set

With `CC[C@H](C)C(=O)O[C@H]1C[C@@H](C)C=C2C=C[C@H](C)[C@H](CC[C@@H]3C[C@@H](O)CC(=O)O3)[C@H]21` [Lovastatin, lovastatin] the OR (LDL [1]; odds of goal LDL <100 mg/dl, Lovastatin 20 mg [A] model (includes HbA1c; n = 595), per dose increment) was 0.768, the OR (LDL [1]; odds of goal, Lovastatin 20 mg [B] model (excludes HbA1c; n = 733), per dose increment) was 0.542 and the OR (LDL [1]; odds of goal, Lovastatin 40 mg model (n = 764), per dose increment) was 0.768. The OR (LDL [1]; odds of goal, Lovastatin 80 model (n = 309), per dose increment) was 0.868, the OR (LDL [1]; odds of goal, Model 1, Lovastatin 20 mg, per 10 mg/day) was 0.593 and the OR (LDL [1]; odds of goal, Model 1, Lovastatin 40 mg, per 10 mg/day) was 0.770. It also gave an OR (LDL [1]; odds of goal, Model 1, Lovastatin 80 mg, per 10 mg/day) of 0.868, an OR (LDL [1]; odds of goal, Model 1, Simvastatin 10 mg, per 10 mg/day) of 0.434 and an OR (LDL [1]; odds of goal, Model 1, Simvastatin 20 mg, per 10 mg/day) of 0.615. The OR (LDL [1]; odds of goal, Model 1, Simvastatin 40 mg, per 10 mg/day) was 0.928, the OR (LDL [1]; odds of goal, Model 1, Simvastatin 80 mg, per 10 mg/day) was 1.04 and the OR (LDL [1]; odds of goal, Simvastatin 10 mg [B] model (includes BMI; n = 136), per dose increment) was 0.341. For the same compound, the OR (LDL [1]; odds of goal, Simvastatin 10 mg [C] model (excludes BMI; n = 219), per dose increment) was 0.382, the OR (LDL [1]; odds of goal, Simvastatin 20 mg model (n = 374), per dose increment) was 0.617 and the OR (LDL [1]; odds of goal, Simvastatin 40 mg model (n = 698), per dose increment) was 0.921. The “Success of dose adjustment (reaching LDL goal)” value (LDL [2]) was ≤ 50%, the “Average LDL reduction” value (LDL [3]; Dose 20 mg) was 29% and the “Average LDL reduction” value (LDL [3]; Dose 40 mg) was 31%. The “Average LDL reduction” value (LDL [3]; Dose 80 mg) was 40-48%, the “Proportion of patients achieving goal” value (LDL [4]; Lovastatin 10 mg model, Overall) was 36.8% and the “Proportion of patients achieving goal” value (LDL [4]; Lovastatin 10 mg model, predicted probability 0-19%) was 10.9%. For the same compound, the “Proportion of patients achieving goal” value (LDL [4]; Lovastatin 10 mg model, predicted probability 20-39%) was 31.3%, the “Proportion of patients achieving goal” value (LDL [4]; Lovastatin 10 mg model, predicted probability 40-59%) was 46.8% and the “Proportion of patients achieving goal” value (LDL [4]; Lovastatin 10 mg model, predicted probability 60-79%) was 73.3%. The “Proportion of patients achieving goal” value (LDL [4]; Lovastatin 20 mg [A] model, Overall) was 49.2%, the “Proportion of patients achieving goal” value (LDL [4]; Lovastatin 20 mg [A] model, predicted probability 0-19%) was 15.0% and the “Proportion of patients achieving goal” value (LDL [4]; Lovastatin 20 mg [A] model, predicted probability 20-39%) was 25.8%. For the same compound, the “Proportion of patients achieving goal” value (LDL [4]; Lovastatin 20 mg [A] model, predicted probability 40-59%) was 55.1%, the “Proportion of patients achieving goal” value (LDL [4]; Lovastatin 20 mg [A] model, predicted probability 60-79%) was 73.0% and the “Proportion of patients achieving goal” value (LDL [4]; Lovastatin 20 mg [A] model, predicted probability 80-100%) was 71.4%. For the same compound, the “Proportion of patients achieving goal” value (LDL [4]; Lovastatin 20 mg [B] model, Overall) was 49.3%, the “Proportion of patients achieving goal” value (LDL [4]; Lovastatin 20 mg [B] model, predicted probability 0-19%) was 12.7% and the “Proportion of patients achieving goal” value (LDL [4]; Lovastatin 20 mg [B] model, predicted probability 20-39%) was 33.0%. For the same compound, the “Proportion of patients achieving goal” value (LDL [4]; Lovastatin 20 mg [B] model, predicted probability 40-59%) was 53.6%, the “Proportion of patients achieving goal” value (LDL [4]; Lovastatin 20 mg [B] model, predicted probability 60-79%) was 75.0% and the “Proportion of patients achieving goal” value (LDL [4]; Lovastatin 20 mg [B] model, predicted probability 80-100%) was 64.7%. For the same compound, the “Proportion of patients achieving goal” value (LDL [4]; Lovastatin 40 mg model, Overall) was 49.3%, the “Proportion of patients achieving goal” value (LDL [4]; Lovastatin 40 mg model, predicted probability 0-19%) was 11.1% and the “Proportion of patients achieving goal” value (LDL [4]; Lovastatin 40 mg model, predicted probability 20-39%) was 31.2%. For the same compound, the “Proportion of patients achieving goal” value (LDL [4]; Lovastatin 40 mg model, predicted probability 40-59%) was 50.7%, the “Proportion of patients achieving goal” value (LDL [4]; Lovastatin 40 mg model, predicted probability 60-79%) was 70.7% and the “Proportion of patients achieving goal” value (LDL [4]; Lovastatin 40 mg model, predicted probability 80-100%) was 100%. For the same compound, the “Proportion of patients achieving goal” value (LDL [4]; Model 1, lovastatin 10 mg, Overall) was 36.8%, the “Proportion of patients achieving goal” value (LDL [4]; Model 1, lovastatin 10 mg, predicted probability 0-19%) was 10.9% and the “Proportion of patients achieving goal” value (LDL [4]; Model 1, lovastatin 10 mg, predicted probability 20-39%) was 31.3%. For the same compound, the “Proportion of patients achieving goal” value (LDL [4]; Model 1, lovastatin 10 mg, predicted probability 40-59%) was 46.8%, the “Proportion of patients achieving goal” value (LDL [4]; Model 1, lovastatin 10 mg, predicted probability 60-79%) was 73.3% and the “Proportion of patients achieving goal” value (LDL [4]; Model 1, lovastatin 20 mg, Overall) was 47.4%. For the same compound, the “Proportion of patients achieving goal” value (LDL [4]; Model 1, lovastatin 20 mg, predicted probability 0-19%) was 8.5%, the “Proportion of patients achieving goal” value (LDL [4]; Model 1, lovastatin 20 mg, predicted probability 20-39%) was 29.0% and the “Proportion of patients achieving goal” value (LDL [4]; Model 1, lovastatin 20 mg, predicted probability 40-59%) was 54.4%. The “Proportion of patients achieving goal” value (LDL [4]; Model 1, lovastatin 20 mg, predicted probability 60-79%) was 74.6%, the “Proportion of patients achieving goal” value (LDL [4]; Model 1, lovastatin 40 mg, Overall) was 49.3% and the “Proportion of patients achieving goal” value (LDL [4]; Model 1, lovastatin 40 mg, predicted probability 0-19%) was 11.1%. For the same compound, the “Proportion of patients achieving goal” value (LDL [4]; Model 1, lovastatin 40 mg, predicted probability 20-39%) was 33.3%, the “Proportion of patients achieving goal” value (LDL [4]; Model 1, lovastatin 40 mg, predicted probability 40-59%) was 49.1% and the “Proportion of patients achieving goal” value (LDL [4]; Model 1, lovastatin 40 mg, predicted probability 60-79%) was 73.2%. The “Chance of success (reaching goal) of any dose choice” value (LDL [4]; this study, all doses) was ≤ 50%.

Reference: US20110245283A1, “Methods for predicting the response to statins” (priority 2009, published 2011)
